In patent US10814010B2, “FOXC2 inhibitor and methods of use thereof” (The Board of Regents of The University of Texas System, priority 2018, dated 2020):

Assays:
Format in all cases: cell-based
MDA-MB-231 cells [1] = assay: Soft-agar colony forming assay, MDA-MB-231; settings: MDA-MB-231, soft agar, 20 μM
Procedure: It was hypothesized that the specific binding of MC-1-F2 can lead to its specific cellular activity against cancer cells with high FOXC2 expression. This hypothesis was tested by evaluating MC-1-F2's cellular activity on cell lines with different FOXC2 expression levels: MCF-7, BT549, and MDA-MB-231. […] However, further studies are still underway. The specificity in cellular activity of MC-1-F2 was further evaluated in the form of a soft-agar colony forming assay to determine if MC-1-F2 was able to inhibit in vitro tumorigenicity of cancer cells in a FOXC2 expression-dependent manner. […] Further testing is underway in various breast cancer cell lines with different FOXC2 expression levels.
Soft-agar colony-formation assay was performed in 6-well plates. 5×10^3 cells were re-suspended into 1.5 mL 0.3% agarose-DMEM mixture, and seeded onto the 0.5% agarose-DMEM base layer. FBS-supplemented DMEM medium (0.2 mL) containing the compound of determined concentrations was added on the top and changed every 3 days. After 10 days incubation in 37° C. incubator with 5% CO2, 0.5 mL of 0.005% crystal violet solution was added to the top of the agarose gel and incubated overnight. The total number of colonies per well that were >100 microns in size when viewed under a simple microscope were counted. Light microscopy images were captured under 20× magnification.

FOXC2 = molecular target: T1, FOXC2 (Homo sapiens, UniProt Q99958); assay: Western blot of FOXC2 protein level and nuclear localization in MDA-MB-231; settings: MDA-MB-231, 20 μM
T1 construct: endogenous in cells; host or cells: MDA-MB-231
T1 sequence (Q99958 1-501): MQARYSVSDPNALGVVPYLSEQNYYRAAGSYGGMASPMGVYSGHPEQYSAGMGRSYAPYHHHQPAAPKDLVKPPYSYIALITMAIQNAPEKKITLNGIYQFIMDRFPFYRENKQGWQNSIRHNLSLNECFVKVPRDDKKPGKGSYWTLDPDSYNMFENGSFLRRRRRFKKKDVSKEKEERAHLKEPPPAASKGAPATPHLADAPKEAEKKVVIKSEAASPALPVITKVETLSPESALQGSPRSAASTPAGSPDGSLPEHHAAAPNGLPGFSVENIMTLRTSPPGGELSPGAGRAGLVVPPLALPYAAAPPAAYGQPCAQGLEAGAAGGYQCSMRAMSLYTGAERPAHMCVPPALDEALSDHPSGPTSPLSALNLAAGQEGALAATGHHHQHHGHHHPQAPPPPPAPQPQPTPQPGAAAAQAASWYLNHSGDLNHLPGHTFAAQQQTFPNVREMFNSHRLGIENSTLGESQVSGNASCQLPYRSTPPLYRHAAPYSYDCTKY
Excerpt: As a transcription factor, FOXC2 needs to localize into the nucleus to promote the transcription of target genes. Therefore, a small molecule that blocks nuclear localization of FOXC2 is expected to inhibit EMT. […] Putative kinases that phosphorylate FOXC2 have been proposed (Werden et al., 2016; Ivanov et al., 2013; Golden & Cantley, 2014). It is possible that MC-1-F2 disrupts the protein-protein interaction between FOXC2 and its kinase, resulting in the decease of FOXC2 nuclear localization. Investigation into the exact mechanism by which MC-1-F2 inhibits FOXC2 phosphorylation and nuclear localization is underway.
50 μg of total protein per sample was incubated with 4× loading buffer at 100° C. for 5 min. Protein samples were then loaded into a polyacrylamide gel and subjected to SDS-PAGE. Resolved proteins were then transferred by a wet transfer method to a PVDF membrane at 100 V for 1 hour using a BioRad Mini Trans-Blot Electrophoresis Transfer Cell. Upon the completion of wet transfer, the membrane was then blocked with 5% (w/v) fat-free milk in 1× Tris-buffered saline/0.1% (v/v) Tween-20 (TBS-T) for at least 1 hour. Then incubated with the respective primary antibodies diluted in 5% BSA in 1×TBST at 4° C. overnight. The following day exposed to 1:1000 dilution of anti-mouse or anti-rabbit HRP-conjugated secondary antibodies in 5% (w/v) fat-free milk in 1×TBS-T for 1 hour at room temperature. The probed proteins were then detected for chemiluminescent signal using SuperSignal Chemiluminescent Substrate (PIERCE). Pierce antibodies: B-actin, and all other antibodies used are from cell signaling. MG132 treatment was added to cells (0.5 μM) for 1-hour incubation prior to compound treatment, no more than 24 hours total exceeded during MG132 incubation.

MDA-MB-231 cells [2] = assay: Transwell invasion assay, MDA-MB-231; settings: MDA-MB-231, 20 μM, 24 hours
Procedure: Reversal of EMT mediated by MC-1-F2 was anticipated to lead to the inhibition of metastatic capability of cancer cells. […] A wound healing assay was carried out to examine the migratory capabilities of cells in closing a “wound” or gap over a period of 24 hours. […] Inhibition of migratory capabilities of cells only measures one aspect of EMT progression. EMT is marked also by increased invasiveness of cancer cells. Therefore, the invasive property of MDA-MB-231 cells treated with MC-1-F2 was examined (FIGS. 6B&C).
Matrigel invasion chambers (Corning) were allowed to come to room temperature and allowed to rehydrate for 2 hours in a cell incubator. Cells were treated 24 hours prior to assay and starved in 2% FBS in DMEM for 2 hours prior to assay. A cell suspension containing 5×10^4 cells/mL was prepared. Chemoattractant (DMEM+10% FBS) was added to the bottom of the wells. Using forceps, the inserts were transferred inside the wells and 0.5 mL of cell suspension was immediately added. The chambers were incubated for 22 hours in a humidified tissue culture incubator. After the 22 hours, the non-invading cells were removed by scrubbing the surface of the membrane. […] The cells were stained with 0.5% crystal violet solution and several images of the wells were then taken and total number of cells counted for analysis.

DU145 cells = assay: Transwell invasion assay, DU145; settings: DU145, 24 hours, vs DMSO
Procedure: Following determination of both inhibition of EMT and CSC properties, the inhibition of the migratory and invasive capabilities of both cell lines following MC-1-F2 treatment was examined through the use of a transwell invasion assay.
Matrigel invasion chambers (Corning) were allowed to come to room temperature and allowed to rehydrate for 2 hours in a cell incubator. Cells were treated 24 hours prior to assay and starved in 2% FBS in DMEM for 2 hours prior to assay. A cell suspension containing 5×10^4 cells/mL was prepared. Chemoattractant (DMEM+10% FBS) was added to the bottom of the wells. Using forceps, the inserts were transferred inside the wells and 0.5 mL of cell suspension was immediately added. The chambers were incubated for 22 hours in a humidified tissue culture incubator. After the 22 hours, the non-invading cells were removed by scrubbing the surface of the membrane. The cells were fixated with 4% formaldehyde solution for 2 minutes at room temperature. Followed by permeabilization of the membrane with 100% MeOH for 20 minutes at room temperature. The cells were stained with 0.5% crystal violet solution and several images of the wells were then taken and total number of cells counted for analysis.

- FOXC2 protein level (FOXC2; 24 hours, absence of MG132): decrease in FOXC2 protein level
SMILES: N=C(N)NCCCCNc1nc(Nc2ccc(Oc3ccccc3)cc2)nc(N2CCN(c3nc(N)nc(Nc4ccc(N5CCOCC5)cc4)n3)CC2)n1 [MC-1-F2]
- colony forming activity (MDA-MB-231 cells [1]): strong inhibition of colony forming activity
- FOXC2 protein level in presence of MG132 (FOXC2; 24 hours, with 26S proteasome inhibitor MG132): prevented by incubating the cells with a 26S proteasome inhibitor, MG132
- nuclear localization of FOXC2 (FOXC2; 48 hours, cytosolic and nuclear fractions): decrease in nuclear localization of FOXC2
- invasive property (transwell invasion) (MDA-MB-231 cells [2]): decrease in the invasive property
- invasiveness (transwell invasion) (DU145 cells): remarkable inhibition in invasiveness
